Data taken from patent publication US9975895B2, “Substituted pyrimidinium compounds and derivatives for combating animal pests” (BASF SE, priority 2013, dated 2018).

Assays:
Format in all cases: in vivo
[1] = system: Rice brown plant hopper (Nilaparvata lugens); assay: Rice brown plant hopper, sprayed potted rice seedlings; conditions: adults on sprayed rice seedlings, after 72 hours, read-out: mortality in comparison with untreated controls
Protocol: Rice seedlings were cleaned and washed 24 hours before spraying. The active compounds were formulated in 50:50 acetone:water (vol:vol) and 0.1% vol/vol surfactant (EL 620) was added. Potted rice seedlings were sprayed with 5 ml test solution, air dried, placed in cages and inoculated with 10 adults. Treated rice plants were kept at about 28-29° C. and relative humidity of about 50-60%. Percent mortality was recorded after 72 hours.

[2] = system: Vetch aphid (Megoura viciae); assay: Vetch aphid control through contact or systemic means, broad bean leaf disks; conditions: foliar, 120 h, adult aphids on treated leaf disks, 5 days, read-out: mortality in comparison with untreated controls
Protocol: For evaluating control of vetch aphid (Megoura viciae) through contact or systemic means the test unit consisted of 24-well-microtiter plates containing broad bean leaf disks.
The compounds were formulated using a solution containing 75% v/v water and 25% v/v DMSO. Different concentrations of formulated compounds were sprayed onto the leaf disks at 2.5 μl, using a custom built micro atomizer, at two replications.
After application, the leaf disks were air-dried and 5-8 adult aphids placed on the leaf disks inside the microtiter plate wells. The aphids were then allowed to suck on the treated leaf disks and incubated at about 23±1° C. and about 50±5% relative humidity for 5 days. Aphid mortality and fecundity was then visually assessed.

[3] = system: Orchid thrips (Dichromothrips corbetti); assay: Orchid thrips floral-immersion bioassay; conditions: adult thrips, 72 hours after treatment, read-out: mortality in comparison with untreated controls
Protocol: Dichromothrips corbetti adults used for bioassay were obtained from a colony maintained continuously under laboratory conditions. For testing purposes, the test compound is diluted in a 1:1 mixture of acetone:water (vol:vol), plus 0.01% vol/vol Alkamuls® EL 620 surfactant. Thrips potency of each compound was evaluated by using a floral-immersion technique. Plastic petri dishes were used as test arenas. All petals of individual, intact orchid flowers were dipped into treatment solution and allowed to dry. Treated flowers were placed into individual petri dishes along with about 20 adult thrips. The petri dishes were then covered with lids. All test arenas were held under continuous light and a temperature of about 28° C. for duration of the assay. After 3 days, the numbers of live thrips were counted on each flower, and along inner walls of each petri dish. The percent mortality was recorded 72 hours after treatment.

[4] = system: Green peach aphid (Myzus persicae); assay: Green peach aphid control through systemic means, artificial diet under membrane; conditions: 72 h, adult aphids on treated diet, 3 days, read-out: mortality in comparison with untreated controls
From the text: For evaluating control of green peach aphid (Myzus persicae) through systemic means the test unit consisted of 96-well-microtiter plates containing liquid artificial diet under an artificial membrane.
The compounds were formulated using a solution containing 75% v/v water and 25% v/v DMSO. Different concentrations of formulated compounds were pipetted into the aphid diet, using a custom built pipetter, at two replications.
After application, 5-8 adult aphids were placed on the artificial membrane inside the microtiter plate wells. The aphids were then allowed to suck on the treated aphid diet and incubated at about 23±1° C. and about 50±5% relative humidity for 3 days. Aphid mortality and fecundity was then visually assessed.

[5] = system: Rice green leafhopper (Nephotettix virescens); assay: Rice green leafhopper, sprayed potted rice seedlings; conditions: adults on sprayed rice seedlings, after 72 hours, read-out: mortality in comparison with untreated controls
Protocol: Rice seedlings were cleaned and washed 24 hours before spraying. The active compounds were formulated in 50:50 acetone:water (vol:vol), and 0.1% vol/vol surfactant (EL 620) was added. Potted rice seedlings were sprayed with 5 ml test solution, air dried, placed in cages and inoculated with 10 adults. Treated rice plants were kept at about 28-29° C. and relative humidity of about 50-60%. Percent mortality was recorded after 72 hours.

[6] = system: Boll weevil (Anthonomus grandis); assay: Boll weevil control, 96-well microtiter plates with insect diet and eggs; conditions: 120 h, egg and larval mortality after 5 days, read-out: mortality in comparison with untreated controls
Protocol: For evaluating control of boll weevil (Anthonomus grandis) the test unit consisted of 96-well-microtiter plates containing an insect diet and 5-10 A. grandis eggs.
The compounds were formulated using a solution containing 75% v/v water and 25% v/v DMSO. Different concentrations of formulated compounds were sprayed onto the insect diet at 5 μl, using a custom built micro atomizer, at two replications.
After application, microtiter plates were incubated at about 25±1° C. and about 75±5% relative humidity for 5 days. Egg and larval mortality was then visually assessed.

[7] = system: Tobacco budworm (Heliothis virescens); assay: Tobacco budworm control, 96-well microtiter plates with insect diet and eggs; conditions: 120 h, egg and larval mortality after 5 days, read-out: mortality in comparison with untreated controls
Protocol: For evaluating control of tobacco budworm (Heliothis virescens) the test unit consisted of 96-well-microtiter plates containing an insect diet and 15-25 H. virescens eggs.
The compounds were formulated using a solution containing 75% v/v water and 25% v/v DMSO. Different concentrations of formulated compounds were sprayed onto the insect diet at 10 μl, using a custom built micro atomizer, at two replications.
After application, microtiter plates were incubated at about 28±1° C. and about 80±5% relative humidity for 5 days. Egg and larval mortality was then visually assessed.

O=c1c(-c2ccccc2)c([O-])[n+]2c3n1CCC3CCC2c1cnc(Cl)s1 (stereo not drawn) [C-2]
> 75%: mortality at 500 ppm [1] | mortality at 2500 ppm [2] | mortality at 500 ppm [3] | mortality at 2500 ppm [4] | mortality at 500 ppm [5]

O=c1c(-c2ccccc2)c([O-])[n+]2c3n1CCCC3CC2c1cnc(Cl)s1 (stereo not drawn) [C-3]
> 75%: mortality at 500 ppm [1] | mortality at 2500 ppm [2] | mortality at 500 ppm [3] | mortality at 2500 ppm [4] | mortality at 500 ppm [5]

O=c1c(-c2ccccc2)c([O-])[n+]2c3n1CCN3CCC2c1cnc(Cl)s1 (stereo not drawn) [C-4]
> 75%: mortality at 500 ppm [3] | mortality at 2500 ppm [4] | mortality at 500 ppm [5]

O=c1c(-c2ccccc2)c([O-])[n+]2c3n1CCCC3CCC2c1cnc(Cl)s1 (stereo not drawn) [C-6]
> 75%: mortality at 500 ppm [1] | mortality at 2500 ppm [2] | mortality at 500 ppm [3] | mortality at 2500 ppm [4] | mortality at 500 ppm [5]

O=c1c(-c2ccccc2)c([O-])[n+]2c3n1CCCN3CCC2c1cnc(Cl)s1 (stereo not drawn) [C-7]
> 75%: mortality at 500 ppm [1] | mortality at 2500 ppm [2] | mortality at 2500 ppm [6] | mortality at 500 ppm [3] | mortality at 2500 ppm [4] | mortality at 500 ppm [5]

O=c1c(-c2ccccc2)c([O-])[n+]2c3c(cccn13)CCC2c1cnc(Cl)s1 (stereo not drawn) [C-8]
> 75%: mortality at 500 ppm [1] | mortality at 2500 ppm [2] | mortality at 2500 ppm [7] | mortality at 2500 ppm [6] | mortality at 500 ppm [3] | mortality at 2500 ppm [4] | mortality at 500 ppm [5]

O=c1c(-c2cccc(C(F)(F)F)c2)c([O-])n2c3c(ccc[n+]13)CCC2c1cnc(Cl)s1 (stereo not drawn) [C-9]
> 75%: mortality at 2500 ppm [2] | mortality at 2500 ppm [7] | mortality at 2500 ppm [4]

O=c1c(-c2cc(Cl)cc(Cl)c2)c([O-])n2c3c(ccc[n+]13)CCC2c1cnc(Cl)s1 (stereo not drawn) [C-10]
> 75%: mortality at 2500 ppm [2] | mortality at 2500 ppm [7]

COc1ccc(-c2c([O-])n3c4c(ccc[n+]4c2=O)CCC3c2cnc(Cl)s2)cc1 (stereo not drawn) [C-11]
> 75%: mortality at 2500 ppm [2] | mortality at 2500 ppm [7] | mortality at 2500 ppm [4]
